# According to patent US20140242673A1, “CHEMICALLY DEFINED CULTURE MEDIUM FOR FERMENTATION TO PRODUCE SUCCINIC ACID AND APPLICATION THEREOF” (NANJING UNIVERSITY OF TECHNOLOGY, priority 2011, published 2014):
# Key:
# Assay type in all cases: cell-based
# [1] = test system: Mannheimia succiniciproducens MBEL55E; test: Production of succinic acid by fermentation with biotin replaced by 5-ALA
# Method: In this preferred embodiment, biotin (10˜20 mg/L) in culture medium is replaced by 0.1˜1 mg/L of 5-ALA, for fermentation experiment.
# The microorganism adopts large Mannheimia succiniciproducens MBEL55E (strain from patents of publication No. EP2096177 and No. EP2199304).
# Cultivation in fermenter: transfer activated seed liquid and sterilized glucose into fermenter; inoculum size shall be 7% (volume ratio); stirring speed shall be 200 rpm; allow fermentation at 37° C.; amount of CO2 connected shall be 0.25 vvm.
# Conventional compositions of fermentation culture medium (g/L): 10 of mixed carbohydrate obtained from pre-treated stalk (measured total carbohydrate concentration), 3 of disodium fumarate, 4 of KH2PO4, 0.4 of MgCl2.6H2O, 0.4 of CaCl2, and 2 of NaCl; sterilize at pH value of 7.0 and 121° C. for 15 min; ammonia is adopted as neutralizing agent.
# [2] = test system: Escherichia coli; test: Production of succinic acid by fermentation at different biotin concentrations
# Method: This preferred embodiment reduces biotin consumption in the culture medium. Particular method of change of fermentation culture medium is described below.
# Germ seed: Escherichia coli (strain from patent of publication No. CN102154339A)
# Cultivation in fermenter: transfer activated seed liquid and sterilized glucose into fermenter; inoculum size shall be 5% (volume ratio); stirring speed shall be 200 rpm; allow fermentation at 37° C.; amount of CO2 connected shall be 0.25 vvm.
# Conventional compositions of fermentation culture medium (g/L): 30 of glucose (separately sterilized), 2 of disodium fumarate, 3 of KH2PO4, 0.3 of MgCl2.6H2O, 0.23 of CaCl2, and 1 of NaCl; sterilized at pH of 7.0 and 121° C. for 15 min; sodium carbonate adopted as neutralizing agent.
# In a 100 mL serum bottle, add 15 g/L of Na2HPO4, 4 g/L of KH2PO4, 13.1 mL of water, and 1 mL of Actinobacillus succinogenes NJ113 (CGMCC 1716) seed liquid after being washed by sterilized water; sterilize at 121° C. for 15 min, and then add 4 mL of reserved mixed liquid containing corresponding concentrations of amino acids, 0.5 mL of mixed liquid of vitamins including niacin and biotin so that […], 1 mL of reserved mixed liquid containing all metal salts being tested, and 0.4 mL of sterilized 500 g/L glucose solution, so that total volume after inoculation reaches 20 mL and glucose concentration is 10 g/L.
# Fermentation experiment of above culture media containing different concentrations of biotin has been carried out under the same fermentation conditions as preferred embodiment 1:
# According to identical germ seed, fermentation conditions, and experiment method of this preferred embodiment, biotin consumption in the culture medium is further lowered, to concentrations of 50 μg/L, 100 μg/L, 150 μg/L, 200 μg/L, and 300 μg/L respectively, for fermentation experiment: […]
# [3] = test system: Actinobacillus succinogenes NJ113 (CGMCC 1716); test: Fermentation in defined medium with one growth factor missing (serum bottle, 30 h); conditions: for bacterial growth / glucose remaining / succinic acid production: culture medium lacks the named growth factor; for OD660 / Residual glucose / Succinic acid: medium lacking the named growth factor, 30 h, 37° C., 200 rpm
# Excerpt: To investigate the effect of critical factors on succinic acid production described by this invention can use any microorganism germ seed used for production of succinic acid using anaerobic fermentation in existing technology. This preferred embodiment uses NJ113 (Actinobacillus succinogenes NJ113), which has been patented (authorized publication No.: CN100537744C).
# First, significance and effect of various amino acids, vitamins, and metallic microelements on bacterial growth and metabolism has been investigated on defined medium. Particular operation and cultivation conditions are as follows:
# (1) Preparation of amino acid mixed liquids: Remove each one type of amino acid from the 18 types of amino acid being tested, to prepare a mixed liquid of remaining 17 types of amino acid of suitable concentration (suitable concentration refers to the concentration at which the substance of lowest solubility is completely dissolved), as well as a mixed liquid containing all 18 types of amino acid. Quantity of each such liquid is 100 mL. After filtration sterilization by 0.22 μm sterile filtering head, keep these liquids for later use. Refer to Attached Table 1 for contents of various amino acids in the culture medium.
# (2) Preparation of vitamin mixed liquids: Using the method in […], remove each one type of vitamin from the 10 types of vitamin being tested, to prepare a mixed liquid of remaining 9 types of vitamin of suitable concentration (suitable concentration refers to the concentration at which the substance of lowest solubility is completely dissolved), as well as a mixed liquid containing all 10 types of vitamin. Quantity of each such liquid is 100 mL. After filtration sterilization by 0.22 μm sterile filtering head, keep these liquids for later use. Refer to Attached Table 1 for contents of various vitamins in the culture medium.
# (3) Preparation of metallic microelement mixed liquids: Using the method in step (1), remove each one type of metal salt from the 12 types of metal salt being tested, to prepare a mixed liquid of remaining 11 types of metal salt of suitable concentration (suitable concentration refers to the concentration at which the substance of lowest solubility is completely dissolved), as well as a mixed liquid containing all 12 types of metal salt. Quantity of each such liquid is 100 mL. After sterilization at 121° C. for 15 min, keep these liquids for later use. Refer to Attached Table 1 for contents of various metal salts in the culture medium.
# Conventional compositions of fermentation culture medium (g/L): 90 of glucose (separately sterilized), 1 of disodium fumarate, 2 of KH2PO4, 0.2 of MgCl2.6H2O, 0.2 of CaCl2, and 1 of NaCl; sterilized at pH of 7.0 and 121° C. for 15 min; sodium carbonate adopted as neutralizing agent.
# In a 100 mL serum bottle, add […] of fermentation culture medium and 1 mL of Actinobacillus succinogenes NJ113 (CGMCC 1716) seed liquid that has been washed by sterilized water; sterilize at 121° C. for 15 min; and then add 4 mL of reserved mixed liquid not containing a type of amino acid, 0.5 mL of reserved mixed liquid containing all vitamins being tested, 1 mL of reserved mixed liquid containing all types of metal salt being tested, and […] of sterilized 600 g/L glucose, so that after inoculation, the total volume reaches 20 mL and glucose concentration is 30 g/L.
# Use the same method to prepare fermentation culture medium that lacks a certain type of vitamin or metal salt.
# Carry out fermentation of above culture media under the following conditions:
# At mechanical shaker speed of 200 rpm and 37° C., allow fermentation for 30 h and then detect content of succinic acid in the fermentation liquid.
# [4] = 5-ALA 0.1~1 mg/L replacing biotin
compound,measurement,setting,value
"NCC(=O)CCC(=O)O [5-ALA, 5-aminolevulinate]",Residual glucose,[1]; [4],3.4 g/L
same,Succinic acid,[1]; [4],15.6 ± 0.2 g/L
same,output of succinic acid compared with biotin,[1]; biotin completely replaced by 5-ALA,can realize the highest output of succinic acid that can be obtained using biotin
"O=C(O)CCCC[C@@H]1SC[C@@H]2NC(=O)N[C@@H]21 [Biotin, biotin]",Residual glucose,[2]; biotin 50 μg/L,23 g/L
same,Succinic acid,[2]; biotin 50 μg/L,1.6 g/L
same,Residual glucose,[2]; biotin 100 μg/L,2.2 g/L
same,Succinic acid,[2]; biotin 100 μg/L,15.8 g/L
same,Residual glucose,[2]; biotin 150 μg/L,2.6 g/L
same,Succinic acid,[2]; biotin 150 μg/L,16.2 g/L
same,Residual glucose,[2]; biotin 200 μg/L,2.5 g/L
same,Succinic acid,[2]; biotin 200 μg/L,16.8 g/L
same,Residual glucose,[2]; biotin 300 μg/L,2.8 g/L
same,Succinic acid,[2]; biotin 300 μg/L,16.7 g/L
same,Residual glucose,[2]; biotin 2 mg/L,0 g/L
same,Succinic acid,[2]; biotin 2 mg/L,18.8 g/L
same,Residual glucose,[2]; biotin 4 mg/L,0 g/L
same,Succinic acid,[2]; biotin 4 mg/L,18.6 g/L
same,Residual glucose,[2]; biotin 6 mg/L,0 g/L
same,Succinic acid,[2]; biotin 6 mg/L,17.7 g/L
same,Residual glucose,[2]; biotin 8 mg/L,0 g/L
same,Succinic acid,[2]; biotin 8 mg/L,19.4 g/L
same,Residual glucose,[2]; biotin 10 mg/L,0 g/L
same,Succinic acid,[2]; biotin 10 mg/L,18.7 g/L
same,Residual glucose,[2]; biotin 20 mg/L,0 g/L
same,Succinic acid,[2]; biotin 20 mg/L,18.5 g/L
same,bacterial growth,[3],relatively poor
same,glucose remaining,[3],large amount of glucose remains
same,succinic acid production,[3],very low
same,OD660,[3],0.3
same,Residual glucose,[3],6.9 g/L
same,Succinic acid,[3],0.7 g/L
N[C@@H](CCC(=O)O)C(=O)O [Glutamic acid],bacterial growth,[3],relatively poor
same,glucose remaining,[3],large amount of glucose remains
same,succinic acid production,[3],very low
same,OD660,[3],0.4
same,Residual glucose,[3],8.1 g/L
same,Succinic acid,[3],0.5 g/L
CSCC[C@H](N)C(=O)O [Methionine],bacterial growth,[3],relatively poor
same,glucose remaining,[3],large amount of glucose remains
same,succinic acid production,[3],very low
same,OD660,[3],0.6
same,Residual glucose,[3],4.3 g/L
same,Succinic acid,[3],1.3 g/L
O=C(O)c1cccnc1 [Niacin],bacterial growth,[3],relatively poor
same,glucose remaining,[3],large amount of glucose remains
same,succinic acid production,[3],very low
same,OD660,[3],0.2
same,Residual glucose,[3],5.6 g/L
same,Succinic acid,[3],0.1 g/L
